Reference: patent US12318381B2, “Treatment for non-alcoholic fatty liver disease” (1GLOBE BIOMEDICAL CO., LTD., priority 2018, dated 2025)
Entries after “also recorded” stand apart in the source; their conditions may differ.

Tests used:
[1] = system: FGF21; test: Serum FGF21 ELISA in HFD-fed mice; format: in vivo, mouse; conditions: ELISA (FIG. 7D)
Text: (§1) Five-week-old male, C57Bl/6J mice (12-18 per group, Jackson Laboratory, Bar Harbor, Me.) were fed ad libitum with a modified high fat or control diet (Bioserv, Frenchtown, N.J.) for 15 weeks. […] We had verified the efficacy of this diet to induce obesity and NAFLD in various pilot studies. At the end of the 15-week long feeding regimen, this diet caused substantial ALT elevation—indicative of liver injury—in these mice.
(§2) After 15 weeks on the modified HFD, the mice were put on a Compound 13-3 (or control vehicle) dosing regimen, in which the introductory 5 mg/kg (p.o., t.i.w. for the first 3 weeks) dose was followed by the administration of 10 mg/kg (p.o., t.i.w. for additional 5 weeks) therapeutic dose. During the course of the drug treatment, the animals were monitored daily for changes in body weight, food/water intake, and adverse effects.
To study the effect of Compound 13-3 on the mediators of fatty acid metabolism, we employed quantitative real-time PCR using commercially available probes to assess mediators of fatty acid metabolism in HFD-fed mice treated with Compound 13-3. […] We, therefore, also measured serum levels of FGF21 using a commercially available ELISA kit.

[2] = system: HFD-fed mice; test: High-fat diet (HFD)-induced obesity/NAFLD mouse model: body weight, food/water intake, liver size and weight; format: in vivo
Text: (§3) In order to assess the in vivo efficacy of Compound 13-3 in improving obesity, and ameliorating NAFLD/NASH, a previously used modified high-fat diet (HFD) was employed to induce obesity and severe fatty liver disease in mice (Derdak et al. Journal of Hepatology 2013; 58(4):785-91).
as §1, §2

[3] = system: HFD-fed mice; test: HFD-induced NAFLD mouse model: serum ALT and AST levels; format: in vivo
Text: as §1, §2
(§4) This biochemical change is very important, as ectopic fat accumulation has been linked to lipotoxicity and hepatocellular injury. The extent of liver injury has been characterized by measuring serum levels of two liver enzymes ALT (FIG. 6B) and AST (FIG. 6C) (UMASS Mouse Phenotyping Center Analytical Core, Worcester, Mass.) at the time of euthanasia.

[4] = system: FGF21; test: Hepatic gene expression by quantitative real-time PCR in HFD-fed mice; format: in vivo, mouse; conditions: HFD-fed mice (FIG. 7C)
Text: as §1, §2
(§5) To study the effect of Compound 13-3 on the mediators of fatty acid metabolism, we employed quantitative real-time PCR using commercially available probes to assess mediators of fatty acid metabolism in HFD-fed mice treated with Compound 13-3. As shown in FIGS. 7A-7E, gene expression of some key mediators of fatty acid oxidation such as CPT1a (FIG. 7A), an enzyme that catalyzes the rate-limiting step of fatty acid oxidation in the mitochondrion, of peroxisomal ACOX1 (FIG. 7B) and of FGF21 (FIG. 7C), a recently described hepatokine with pronounced anti-NAFLD and hepatoprotective efficacy (see, Maratos-Flier E Exp Cell Res (2017) 360(1): 2-5; Sonoda J, et al. Horm Mol Biol Clin Investig (2017) 30(2); Xu J, et al. Diabetes (2009) 58(1):250-259; Li H, et al. Diabetes (2012) 61(4): 797-806; Desai B N, et al. Mot Metab (2017) 6(11):1395-1406), were increased by Compound 13-3 treatment in HFD-fed mice. Many of the beneficial metabolic effects are linked to FGF21, and FGF21 itself may further enhance fatty acid oxidation (Xu J, et al. Diabetes (2009) 58(1):250-259; Li H, et al. Diabetes (2012) 61(4):797-806). We, therefore, also measured serum levels of FGF21 using a commercially available ELISA kit.

[5] = system: CPT1a; test: as above; format: in vivo, mouse; conditions: HFD-fed mice (FIG. 7A)
Text: as §1, §2, §5

[6] = system: ACOX1; test: as above; format: in vivo, mouse; conditions: HFD-fed mice (FIG. 7B)
Text: as §1, §2, §5

[7] = system: PPAR-γ; test: Hepatic protein expression by Western-blotting and densitometry in HFD-fed mice; format: in vivo, mouse; conditions: Western-blotting and densitometry (FIG. 8B)
Text: as §1, §2
(§6) FGF21 has also been linked to the suppression of adipogenesis by suppressing hepatic PPAR-γ, FABP4 and CD36 (Xu J, et al. Diabetes (2009) 58(1):250-259). In view of this, we next assessed the expression of these mediators of adipogenesis in the livers of Compound 13-3-treated, HFD-fed mice.

[8] = system: leptin; test: Serum leptin ELISA in HFD-fed mice; format: in vivo, mouse; conditions: ELISA (FIG. 7E)
Text: as §1, §2
A suppressive effect of exogenous FGF21 on circulating leptin levels has been previously observed in non-human primates. Accordingly, we also measured serum leptin levels using a commercially available ELISA kit.

[9] = system: PPAR-γ; test: Hepatic gene expression in HFD-fed mice; format: in vivo, mouse; conditions: HFD-fed mice (FIG. 8A)
Text: as §1, §2, §6

[10] = system: FABP4; test: Hepatic gene expression in HFD-fed mice; format: in vivo, mouse; conditions: HFD-fed mice liver (FIG. 8C)
Text: as §1, §2, §6

[11] = system: CD36; test: Hepatic gene expression in HFD-fed mice; format: in vivo, mouse; conditions: HFD-fed mice liver (FIG. 8D)
Text: as §1, §2, §6

[12] = system: HFD-fed mice; test: HFD-induced NAFLD mouse model: liver histology (H&E, Masson's trichrome, PAS) and NAFLD Activity Score; format: in vivo
Text: as §3, §1, §2
The pronounced efficacy of Compound 13-3 in improving NAFLD was further supported by microscopical analysis of the harvested liver samples (FIG. 4).
Microscopic evaluation of hematoxylin-eosin (H&E) stained liver slides was performed by an expert pathologist to determine the effect of the drug treatment on the NAFLD Activity Score (NAS), as a primary read-out for the anti-NAFLD efficacy of Compound 13-3. The composite NAS score is frequently used to describe the severity of the characteristic pathological changes seen in NAFLD/NASH (Kleiner D E et al. Hepatology. 2005; 41(6):1313-21), including steatosis, lobular inflammation (FIG. 5A), and hepatocellular ballooning (FIG. 5B).

[13] = system: HFD-fed mice; test: HFD-induced NAFLD mouse model: hepatic triglyceride biochemical assay; format: in vivo; conditions: HFD-fed mice liver (FIG. 6A)
Text: as §1, §2, §4

[14] = system: collagen type I, alpha 1; test: Hepatic gene expression by quantitative real-time PCR in HFD-fed mice; format: in vivo, mouse; conditions: HFD-fed mice liver, quantitative real-time PCR (FIG. 5D)
Text: as §1, §2
Therefore, pharmaceutical compositions based on Compound 13-3 and other compounds of the invention will likely provide a viable treatment of NAFLD and especially NASH.

[15] = system: human HepG2 liver cells; test: Intracellular triglyceride content in palmitoleic acid-treated HepG2 cells (biochemical kit); format: cell-based; conditions: HepG2, 1.6 mM palmitoleic acid in EMEM, 48 hours, 0.1 μM compound vs DMSO (FIG. 1A)
Procedure: A series of in vitro experiments were first carried out with various human hepatocyte cultures. For example, human HepG2 liver cells were incubated with 1.6 mM palmitoleic acid in EMEM medium for 48 hours in the presence of 0.1 μM Compound 13-3 or control vehicle, DMSO. After 48 hours, cells were collected and the intracellular triglyceride content was measured by a biochemical kit (Biovision, Mountain View, Calif.) as described in Derdak et al. J Hepatol. 2013; 58(4):785-91.

CCN(CC)CCNC(=O)c1c(C)[nH]c(/C=C2\C(=O)Nc3ccc(-c4csc(-c5ccccc5)n4)cc32)c1C [Compound 13-3]
serum FGF21 level [1]: increased
change in body weight during treatment ([2]; HFD-fed C57Bl/6J mice, 5 mg/kg p.o. t.i.w. 3 weeks then 10 mg/kg p.o. t.i.w. 5 weeks (FIG. 2A)): not only prevented additional weight gain in the mice on HFD, but also triggered a gradual weight loss
food intake ([2]; HFD-fed mice, 5 mg/kg then 10 mg/kg p.o. t.i.w. (FIG. 2C)): not linked to decreased food intake
water intake ([2]; HFD-fed mice, 5 mg/kg then 10 mg/kg p.o. t.i.w. (FIG. 2D)): not linked to decreased food intake or water intake
size of the liver (macroscopic overview at euthanasia) ([2]; HFD-fed mice, 5 mg/kg then 10 mg/kg p.o. t.i.w., vs vehicle (FIG. 2E, 3A)): markedly decreased the size of the liver; also recorded: essentially comparable to the lean animals
macroscopic appearance of the liver ([2]; HFD-fed mice, vs vehicle (pale yellow enlarged liver) (FIG. 2E)): healthier, darker brown appearance
fatty metamorphosis / ectopic fat accumulation in the liver ([2]; HFD-fed mice, vs vehicle-treated littermates (FIG. 3A-3C)): markedly decreased or prevented ectopic fat accumulation
liver weight ([2]; HFD-fed mice, vs vehicle-treated littermates, at euthanasia (FIG. 3A, 3B)): profoundly decrease liver weight
serum ALT ([3]; at euthanasia (FIG. 6B)): suppresses ALT elevation
serum AST ([3]; at euthanasia (FIG. 6C)): not affected
serum AST:ALT ratio ([3]; vs vehicle (FIG. 6D)): largely prevent the drastic decrease
FGF21 gene expression [4]: pronounced elevation
CPT1a gene expression [5]: increased
ACOX1 gene expression [6]: increased
PPAR-γ protein expression in the liver [7]: suppressed
serum leptin level (HFD-induced increase) [8]: significantly decreased
PPAR-γ gene expression in the liver [9]: suppressed
FABP4 gene expression [10]: decreased
CD36 gene expression [11]: decreased
HFD-induced steatosis and lobular inflammation (NAS components) ([12]; HFD-fed mice (FIG. 5A)): suppressed
HFD-induced hepatocellular ballooning (NAS component) ([12]; HFD-fed mice (FIG. 5B)): eliminated
hepatic glycogen depletion (Periodic Acid Schiff staining) ([12]; HFD-fed mice, vehicle group depleted in zones 2 & 3 (FIG. 4 bottom row)): evidence for hepatic depletion of glycogen was not present
fibrosis (Masson's trichrome staining) ([12]; HFD-fed mice, vehicle group showed stage 1 fibrosis (FIG. 4 middle row)): did not exhibit any signs of fibrosis
H&E histology: disorganized liver architecture, micro- and macrovesicular steatosis, hepatocyte ballooning and inflammation ([12]; HFD-fed mice, vs vehicle (FIG. 4 top row)): markedly suppressed
NAFLD Activity Score (NAS) ([12]; HFD-fed mice, vs vehicle-treated littermates (FIG. 5C)): substantially lower
hepatic triglyceride content [13]: prevented the HFD-induced steatosis
hepatic production (gene expression) of collagen type I, alpha 1 [14]: marked decrease
palmitoleic acid-induced increase of intracellular triglyceride content [15]: markedly suppressed
